{"source": "patent US9708557B2", "about": "“Process for the treatment of liquefied hydrocarbon gas using 2-amino-2(hydroxymethyl) propane-1,3-diol compounds” (Dow Global Technologies LLC, priority 2012, dated 2017)", "key": {"[1]": {"assay": "Solubility of tested amine in heptane phase (gas chromatography, toluene internal standard)", "details": "heptane 10 g, toluene 0.1 g, amine 2.5 g mixed at 20° C. for 1 hour, decanted 15 minutes; average of three injections", "experimental": "A solution of heptane (10 g), toluene (0.1 g) and the tested amine (2.5 g) are mixed at 20° C. for 1 hour. The mixture is decanted for 15 minutes and the neat heptane phase is analyzed by gas chromatography using toluene as internal standard. The injection is repeated three times and peak areas of tested amine are averaged."}, "[2]": {"assay": "pKa by automated Mettler Toledo titration", "details": "50 weight % aqueous amine solution"}}}
{"smiles": "NC(CO)(CO)CO", "note": "[TA, 2-amino-2-(hydroxymethyl)propane-1,3-diol]", "values": [{"measurement": "area counts (GC peak area of tested amine in neat heptane phase)", "setting": "[1]", "value": 0, "unit": "area counts"}]}
{"smiles": "CN(C)C(CO)(CO)CO", "note": "[DMTA, 2-dimethylamino-2-(hydroxymethyl)propane-1,3-diol]", "values": [{"measurement": "pKa", "setting": "[2]", "value": 9.1}, {"measurement": "area counts (GC peak area of tested amine in neat heptane phase)", "setting": "[1]", "value": 50, "unit": "area counts"}]}
